Reference: the supplement of paper PMC10307832

How the values were obtained:
Experiment in all cases: relative viability (nuclei count vs DMSO), 5 days (fraction); higher = more cells survive
[1] = compound: N[C@@H]1CCCN(c2c(/C=C3\SC(=O)NC3=O)cccc2-c2ccccc2)C1 [AZD1208] + Cc1nc(Nc2ncc(C(=O)Nc3c(C)cccc3Cl)s2)cc(N2CCN(CCO)CC2)n1 [Dasatinib] (partner 0.075 µM)
Procedure, shortened: (§1)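 Values are medians from duplicate plates. Each reflects relative viability, defined as the nuclei count of treated wells over that of vehicle wells. Lung cancer cell lines in 1536-well plates were pin-tool dosed one day after seeding with one drug alone or with a fixed anchor-drug dose plus five library-drug doses (not always all listed) in √10 steps, then fixed, stained and imaged at 4× after 5 days.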

[2] = compound: CN1CCN(CC1)C2=CC(=C(C=C2)NC3=NC(=C(S3)C(=O)C4=C(C=CC=C4Cl)Cl)N)OC [XMD14-99] + O=C(c1cc(Cc2n[nH]c(=O)c3ccccc23)ccc1F)N1CCN(C(=O)C2CC2)CC1 [Olaparib] (partner 8 µM)
Procedure, shortened: as §1

[3] = compound: CN1CCN(CC1)C2=CC(=C(C=C2)NC3=NC(=C(S3)C(=O)C4=C(C=CC=C4Cl)Cl)N)OC [XMD14-99] + CC(C)C[C@H](NC(=O)[C@H](Cc1ccccc1)NC(=O)c1cnccn1)B(O)O [Bortezomib] (partner 0.002 µM)
Procedure, shortened: as §1

[4] = compound: CN1CCN(CC1)C2=CC(=C(C=C2)NC3=NC(=C(S3)C(=O)C4=C(C=CC=C4Cl)Cl)N)OC [XMD14-99] + CS(=O)(=O)N1CCN(Cc2cc3nc(-c4cccc5[nH]ncc45)nc(N4CCOCC4)c3s2)CC1 [Pictilisib] (partner 1 µM)
Procedure, shortened: as §1

| Cell Line | relative viability ([1]; first compound 0.08 µM) | relative viability ([1]; first compound 0.253 µM) | relative viability ([1]; first compound 0.8 µM) | relative viability ([1]; first compound 2.53 µM) | relative viability ([1]; first compound 8 µM) | relative viability ([2]; first compound 0.08 µM) | relative viability ([2]; first compound 0.8 µM) | relative viability ([2]; first compound 2.53 µM) | relative viability ([2]; first compound 8 µM) | relative viability ([3]; first compound 0.08 µM) | relative viability ([3]; first compound 0.8 µM) | relative viability ([3]; first compound 2.53 µM) | relative viability ([3]; first compound 8 µM) | relative viability ([4]; first compound 0.08 µM) | relative viability ([4]; first compound 0.8 µM) | relative viability ([4]; first compound 2.53 µM) | relative viability ([4]; first compound 8 µM) |
| --- | --- | --- | --- | --- | --- | --- | --- | --- | --- | --- | --- | --- | --- | --- | --- | --- | --- |
| NCI-H23 | 0.641 | 0.887 | 0.668 | 0.714 | 0.614 | 0.313 | 0.325 | 0.277 | 0.225 | 0.95 | 0.908 | 1.12 | 0.728 | 0.46 | 0.547 | 0.526 | 0.383 |
| NCI-H322M | 0.261 | 0.235 | 0.23 | 0.224 | 0.228 | 0.807 | 0.8 | 0.75 | 0.617 | 1.12 | 1.33 | 1.44 | 1.24 | 0.514 | 0.538 | 0.495 | 0.476 |
| NCI-H441 | 0.593 | 0.486 | 0.425 | 0.55 | 0.437 | 0.526 | 0.519 | 0.529 | 0.455 | 0.562 | 0.653 | 0.473 | 0.587 | 0.451 | 0.442 | 0.51 | 0.283 |
| NCI-H460 | 0.54 | 0.562 | 0.473 | 0.365 | 0.334 | 0.394 | 0.432 | 0.421 | 0.182 | 1.06 | 1.15 | 0.983 | 0.784 | 0.335 | 0.378 | 0.345 | 0.254 |
| NCI-H520 | 0.151 | 0.196 | 0.173 | 0.154 | 0.178 | 0.344 | 0.381 | 0.32 | 0.196 | 0.622 | 0.604 | 0.425 | 0.279 | 0.254 | 0.266 | 0.277 | 0.266 |
| NCI-H596 | 0.545 | 0.586 | 0.524 | 0.524 | 0.462 | 0.815 | 0.725 | 0.646 | 0.665 | 0.962 | 1.07 | 1.07 | 0.797 | 0.399 | 0.413 | 0.35 | 0.396 |
| NCI-H647 | 0.119 | 0.226 | 0.106 | 0.132 | 0.169 | 0.512 | 0.561 | 0.746 | 0.38 | 0.914 | 1.04 | 0.928 | 0.745 | 0.421 | 0.412 | 0.472 | 0.379 |
| NCI-H650 | 0.509 | 0.451 | 0.385 | 0.379 | 0.338 | 0.39 | 0.355 | 0.338 | 0.327 | 0.97 | 0.847 | 0.724 | 0.649 | 0.931 | 0.992 | 0.805 | 0.72 |
| NCI-H661 | 0.95 | 0.98 | 0.864 | 0.777 | 0.902 | 0.684 | 0.663 | 0.619 | 0.485 | 0.708 | 0.669 | 0.793 | 0.674 | 0.375 | 0.322 | 0.389 | 0.298 |
| NCI-H727 | 0.315 | 0.322 | 0.315 | 0.313 | 0.314 | 0.737 | 0.68 | 0.712 | 0.523 | 0.895 | 0.827 | 0.625 | 0.575 | 0.551 | 0.403 | 0.321 | 0.276 |
| NCI-H838 | 0.329 | 0.365 | 0.272 | 0.311 | 0.274 | 0.736 | 0.754 | 0.637 | 0.45 | 0.826 | 0.828 | 0.674 | 0.491 | 0.434 | 0.411 | 0.38 | 0.296 |
| NCI-H1355 | 0.732 | 0.55 | 0.628 | 0.641 | 0.48 | 0.72 | 0.708 | 0.715 | 0.493 | 1.31 | 1.2 | 1.15 | 0.898 | 0.483 | 0.439 | 0.378 | 0.327 |
| NCI-H1437 | 0.495 | 0.297 | 0.337 | 0.296 | 0.337 | 0.615 | 0.622 | 0.56 | 0.464 | 0.519 | 0.408 | 0.323 | 0.287 | 0.392 | 0.416 | 0.34 | 0.214 |
| NCI-H1650 | 0.267 | 0.311 | 0.255 | 0.261 | 0.296 | 0.834 | 0.597 | 0.639 | 0.734 | 0.248 | 0.221 | 0.187 | 0.168 | 0.561 | 0.67 | 0.505 | 0.328 |
| NCI-H1651 | 0.406 | 0.461 | 0.38 | 0.319 | 0.307 | 0.187 | 0.203 | 0.147 | 0.157 | 0.964 | 0.938 | 0.981 | 0.811 | 0.547 | 0.521 | 0.593 | 0.461 |
| NCI-H1666 | 0.843 | 0.829 | 0.828 | 0.763 | 0.834 | 0.81 | 0.73 | 0.737 | 0.763 | 0.872 | 0.782 | 0.825 | 0.629 | 0.449 | 0.448 | 0.403 | 0.343 |
| NCI-H1734 | 0.41 | 0.435 | 0.426 | 0.393 | 0.307 | 0.605 | 0.581 | 0.595 | 0.385 | 0.873 | 0.847 | 0.822 | 0.707 | 0.436 | 0.447 | 0.513 | 0.389 |
| NCI-H1755 | 0.422 | 0.407 | 0.345 | 0.339 | 0.209 | 0.888 | 0.815 | 0.835 | 0.622 | 0.854 | 0.947 | 0.859 | 0.795 | 0.404 | 0.401 | 0.426 | 0.295 |
